Measured values taken from patent US20230085307A1, “PYRIDAZINONE COMPOUND AND HERBICIDE” (NISSAN CHEMICAL CORPORATION, priority 2019, published 2023).

Legend:
barnyard grass [1] = experiment: Test Example 4: herbicidal effect by soil treatment (Table 19, symbol H); assay type: in vivo, barnyard grass (Echinochloa crus-galli)
Method in brief: (§1)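 Step 1: sow seeds in sterilized diluvial soil, cover ~1.5 cm. Step 2: spray diluted emulsion onto soil surface at predetermined rate. Step 3: greenhouse, 25–30° C, three weeks. Step 4: grade effect on each plant by earlier criteria.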

southern crabgrass = experiment: Test Example 4: herbicidal effect by soil treatment (Table 19, symbol F); assay type: in vivo, southern crabgrass (Digitaria ciliaris)
Method in brief: as §1

barnyard grass [2] = experiment: Test Example 3: herbicidal effect by foliage application, Wagner pot (Table 18, symbol H); assay type: in vivo, barnyard grass (Echinochloa crus-galli)
Method in brief: (§2)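 Plants were sown in alluvial soil held under 0.1–0.5 cm standing water and grown 14 days in a greenhouse at 25–30 °C. An emulsifiable formulation, water-diluted to the set dose, was then sprayed onto the foliage, and effects were scored three weeks later using previously defined criteria.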

lambsquarters [3] = experiment: Test Example 4: herbicidal effect by soil treatment (Table 19, symbol O); assay type: in vivo, lambsquarters (Chenopodium album)
Method in brief: as §1

windgrass [4] = experiment: Test Example 4: herbicidal effect by soil treatment (Table 19, symbol L); assay type: in vivo, windgrass (Apera spica-venti)
Method in brief: as §1

barnyard grass [5] = experiment: Test Example 5: herbicidal effect by foliage application, plastic box (Table 20, symbol H); assay type: in vivo, barnyard grass (Echinochloa crus-galli); conditions: foliage application, 3 weeks after application
Method in brief: (§3)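 Foliar spray test: emulsion formulation diluted in water to a set application rate, sprayed onto 14-day-old plants raised in diluvial soil at 25° C to 30° C under glass. Both herbicidal effect and crop effect rated visually three weeks later.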

Japanese bulrush [6] = experiment: Test Example 1: herbicidal activity, application before weed generation under submerged conditions (Table 16, symbol B); assay type: in vivo, Japanese bulrush (Schoenoplectus juncoides)
Method in brief: (§4)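 Alluvial soil was flooded to 4 cm depth, weed seeds were sown mixed and 2.5-leaf rice seedlings were transplanted. On sowing day, the compound's emulsion, diluted in water to a set dose, was applied to the water surface. Plants grew at 25–30 °C and were scored 0–5 after three weeks.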

windgrass [7] = experiment: Test Example 5: herbicidal effect by foliage application, plastic box (Table 20, symbol L); assay type: in vivo, windgrass (Apera spica-venti); conditions: foliage application, 3 weeks after application
Method in brief: as §3

lambsquarters [8] = experiment: Test Example 5: herbicidal effect by foliage application, plastic box (Table 20, symbol O); assay type: in vivo, lambsquarters (Chenopodium album); conditions: foliage application, 3 weeks after application
Method in brief: as §3

late watergrass = experiment: Test Example 1: herbicidal activity, application before weed generation under submerged conditions (Table 16, symbol A); assay type: in vivo, late watergrass (Echinochloa oryzicola)
Method in brief: as §4

blackgrass = experiment: Test Example 5: herbicidal effect by foliage application, plastic box (Table 20, symbol J); assay type: in vivo, blackgrass (Alopecurus myosuroides); conditions: foliage application, 3 weeks after application
Method in brief: as §3

persian speedwell = experiment: Test Example 4: herbicidal effect by soil treatment (Table 19, symbol R); assay type: in vivo, Persian speedwell (Veronica persica)
Method in brief: as §1

Japanese bulrush [9] = experiment: Test Example 2: herbicidal activity, application during weed generation under submerged conditions (Table 17, symbol B); assay type: in vivo, Japanese bulrush (Schoenoplectus juncoides); conditions: application during weed generation, submerged conditions
Method in brief: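 3-wk visual-criteria score after one water-surface dose. Emulsion formulation, water-diluted to set rate; applied at 1–2 leaf stage; alluvial soil, 4 cm standing water; seeds co-sown; greenhouse 25–30° C.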

Chinese sprangletop = experiment: Test Example 3: herbicidal effect by foliage application, Wagner pot (Table 18, symbol D); assay type: in vivo, chinese sprangletop (Leptochloa chinensis)
Method in brief: as §2

Compound | H: barnyard grass, herbicidal effect rating (barnyard grass [1]; AAH 320 g/ha) | F: southern crabgrass, herbicidal effect rating (southern crabgrass; AAH 320 g/ha) | herbicidal effect on H (barnyard grass), rating 0-5 (barnyard grass [2]; 320 g/ha) | O: lambsquarters, herbicidal effect rating (lambsquarters [3]; AAH 320 g/ha) | L: windgrass, herbicidal effect rating (windgrass [4]; AAH 320 g/ha) | effect on barnyard grass (H) (barnyard grass [5]; 320 g/ha) | Herbicidal effect on B: Japanese bulrush (grade 0-5) (Japanese bulrush [6]; 320 g/ha applied herbicide) | effect on windgrass (L) (windgrass [7]; 320 g/ha) | effect on lambsquarters (O) (lambsquarters [8]; 320 g/ha) | Herbicidal effect on A: late watergrass (grade 0-5) (late watergrass; 320 g/ha applied herbicide) | effect on blackgrass (J) (blackgrass; 320 g/ha) | R: persian speedwell, herbicidal effect rating (persian speedwell; AAH 320 g/ha) | herbicidal effect rating, B: Japanese bulrush (Japanese bulrush [9]; AAH 320 g/ha) | herbicidal effect on D (Chinese sprangletop), rating 0-5 (Chinese sprangletop; 320 g/ha) | also measured
Cc1nn(C)c(=O)c(-c2c(-c3ccc(OCCC(F)(F)F)cc3)sc3ccccc23)c1O [1-206] | 5 (Herbicidal rate of 90% or more (almost completely withered)) | 4 (Herbicidal rate of 70% or more and less than 90%) | 5 (Herbicidal rate of 90% or more (almost completely withered)) | 5 (Herbicidal rate of 90% or more (almost completely withered)) | 3 (Herbicidal rate of 40% or more and less than 70%) | 5 (Herbicidal rate of 90% or more (almost completely withered)) | 5 (Herbicidal rate of 90% or more (almost completely withered)) | 5 (Herbicidal rate of 90% or more (almost completely withered)) | 5 (Herbicidal rate of 90% or more (almost completely withered)) | 5 (Herbicidal rate of 90% or more (almost completely withered)) | 5 (Herbicidal rate of 90% or more (almost completely withered)) | 5 (Herbicidal rate of 90% or more (almost completely withered)) | 3 (Herbicidal rate of 40% or more and less than 70%) | 5 (Herbicidal rate of 90% or more (almost completely withered)) | –
C=C(C)COc1ccc(-c2sc3ccccc3c2-c2c(O)c(C)nn(C)c2=O)cc1 [1-208] | 0 (Herbicidal rate of 5% or less (almost no effect)) | 0 (Herbicidal rate of 5% or less (almost no effect)) | 5 (Herbicidal rate of 90% or more (almost completely withered)) | 0 (Herbicidal rate of 5% or less (almost no effect)) | 0 (Herbicidal rate of 5% or less (almost no effect)) | 5 (Herbicidal rate of 90% or more (almost completely withered)) | 5 (Herbicidal rate of 90% or more (almost completely withered)) | 4 (Herbicidal rate of 70% or more and less than 90%) | 5 (Herbicidal rate of 90% or more (almost completely withered)) | 5 (Herbicidal rate of 90% or more (almost completely withered)) | 4 (Herbicidal rate of 70% or more and less than 90%) | 5 (Herbicidal rate of 90% or more (almost completely withered)) | 3 (Herbicidal rate of 40% or more and less than 70%) | 5 (Herbicidal rate of 90% or more (almost completely withered)) | –
C=C(Br)COc1ccc(-c2sc3ccccc3c2-c2c(O)c(C)nn(C)c2=O)cc1 [1-215] | 0 (Herbicidal rate of 5% or less (almost no effect)) | 0 (Herbicidal rate of 5% or less (almost no effect)) | 5 (Herbicidal rate of 90% or more (almost completely withered)) | 3 (Herbicidal rate of 40% or more and less than 70%) | 0 (Herbicidal rate of 5% or less (almost no effect)) | 5 (Herbicidal rate of 90% or more (almost completely withered)) | 4 (Herbicidal rate of 70% or more and less than 90%) | 5 (Herbicidal rate of 90% or more (almost completely withered)) | 5 (Herbicidal rate of 90% or more (almost completely withered)) | 5 (Herbicidal rate of 90% or more (almost completely withered)) | 2 (Herbicidal rate of 20% or more and less than 40%) | 3 (Herbicidal rate of 40% or more and less than 70%) | 3 (Herbicidal rate of 40% or more and less than 70%) | 5 (Herbicidal rate of 90% or more (almost completely withered)) | –
Cc1nn(C)c(=O)c(-c2c(-c3ccc(OCCC4OCCO4)cc3)sc3ccccc23)c1O [1-223] | – | – | – | – | – | – | – | – | – | – | – | – | – | – | H: barnyard grass, herbicidal effect rating (barnyard grass [1]; AAH 246 g/ha): 3 (Herbicidal rate of 40% or more and less than 70%); F: southern crabgrass, herbicidal effect rating (southern crabgrass; AAH 246 g/ha): 0 (Herbicidal rate of 5% or less (almost no effect)); herbicidal effect on H (barnyard grass), rating 0-5 (barnyard grass [2]; 246 g/ha): 5 (Herbicidal rate of 90% or more (almost completely withered)); O: lambsquarters, herbicidal effect rating (lambsquarters [3]; AAH 246 g/ha): 3 (Herbicidal rate of 40% or more and less than 70%); L: windgrass, herbicidal effect rating (windgrass [4]; AAH 246 g/ha): 0 (Herbicidal rate of 5% or less (almost no effect)); effect on barnyard grass (H) (barnyard grass [5]; 246 g/ha): 5 (Herbicidal rate of 90% or more (almost completely withered)); Herbicidal effect on B: Japanese bulrush (grade 0-5) (Japanese bulrush [6]; 246 g/ha applied herbicide): 4 (Herbicidal rate of 70% or more and less than 90%); effect on windgrass (L) (windgrass [7]; 246 g/ha): 4 (Herbicidal rate of 70% or more and less than 90%); effect on lambsquarters (O) (lambsquarters [8]; 246 g/ha): 5 (Herbicidal rate of 90% or more (almost completely withered)); Herbicidal effect on A: late watergrass (grade 0-5) (late watergrass; 246 g/ha applied herbicide): 5 (Herbicidal rate of 90% or more (almost completely withered)); effect on blackgrass (J) (blackgrass; 246 g/ha): 2 (Herbicidal rate of 20% or more and less than 40%); R: persian speedwell, herbicidal effect rating (persian speedwell; AAH 246 g/ha): 0 (Herbicidal rate of 5% or less (almost no effect)); herbicidal effect rating, B: Japanese bulrush (Japanese bulrush [9]; AAH 246 g/ha): 3 (Herbicidal rate of 40% or more and less than 70%); herbicidal effect on D (Chinese sprangletop), rating 0-5 (Chinese sprangletop; 246 g/ha): 5 (Herbicidal rate of 90% or more (almost completely withered))
CSCCSCc1ccc(-c2sc3ccccc3c2-c2c(O)c(C)nn(C)c2=O)cc1 [1-253] | 0 (Herbicidal rate of 5% or less (almost no effect)) | 0 (Herbicidal rate of 5% or less (almost no effect)) | 5 (Herbicidal rate of 90% or more (almost completely withered)) | 3 (Herbicidal rate of 40% or more and less than 70%) | 0 (Herbicidal rate of 5% or less (almost no effect)) | 5 (Herbicidal rate of 90% or more (almost completely withered)) | 3 (Herbicidal rate of 40% or more and less than 70%) | 0 (Herbicidal rate of 5% or less (almost no effect)) | 5 (Herbicidal rate of 90% or more (almost completely withered)) | 3 (Herbicidal rate of 40% or more and less than 70%) | 0 (Herbicidal rate of 5% or less (almost no effect)) | 5 (Herbicidal rate of 90% or more (almost completely withered)) | 0 (Herbicidal rate of 5% or less (almost no effect)) | 3 (Herbicidal rate of 40% or more and less than 70%) | –
